# Article PMC7796287, “Phloroglucinol Derivatives from Dryopteris crassirhizoma as Potent Xanthine Oxidase Inhibitors” (Molecules, 2020)
# Where two headings read alike, the source gives them in different places.
# Legend:
# xanthine oxidase (XO) = biological target: T1, xanthine oxidase (XO) (Bos taurus, UniProt P80457); assay: Assay of XO-inhibitory activity and kinetics (oxidation of xanthine to uric acid, absorbance at 295 nm); format: biochemical, bovine milk; conditions: for Xanthine Oxidase Kinetic Mode / Ki: Lineweaver–Burk and Dixon plots; for inhibition at 25 µM: read-out: Xanthine Oxidase Inhibition %; for Ki: read-out: Xanthine Oxidase Ki (inhibition constant); for IC50: isolated compounds and positive controls, substrate xanthine, pH 7.5, 37 °C
# T1 construct: 20 µL of 0.1 unit XO enzyme (bovine milk) in buffer; from tissue; host or cells: bovine milk
# T1 sequence (P80457 whole entry): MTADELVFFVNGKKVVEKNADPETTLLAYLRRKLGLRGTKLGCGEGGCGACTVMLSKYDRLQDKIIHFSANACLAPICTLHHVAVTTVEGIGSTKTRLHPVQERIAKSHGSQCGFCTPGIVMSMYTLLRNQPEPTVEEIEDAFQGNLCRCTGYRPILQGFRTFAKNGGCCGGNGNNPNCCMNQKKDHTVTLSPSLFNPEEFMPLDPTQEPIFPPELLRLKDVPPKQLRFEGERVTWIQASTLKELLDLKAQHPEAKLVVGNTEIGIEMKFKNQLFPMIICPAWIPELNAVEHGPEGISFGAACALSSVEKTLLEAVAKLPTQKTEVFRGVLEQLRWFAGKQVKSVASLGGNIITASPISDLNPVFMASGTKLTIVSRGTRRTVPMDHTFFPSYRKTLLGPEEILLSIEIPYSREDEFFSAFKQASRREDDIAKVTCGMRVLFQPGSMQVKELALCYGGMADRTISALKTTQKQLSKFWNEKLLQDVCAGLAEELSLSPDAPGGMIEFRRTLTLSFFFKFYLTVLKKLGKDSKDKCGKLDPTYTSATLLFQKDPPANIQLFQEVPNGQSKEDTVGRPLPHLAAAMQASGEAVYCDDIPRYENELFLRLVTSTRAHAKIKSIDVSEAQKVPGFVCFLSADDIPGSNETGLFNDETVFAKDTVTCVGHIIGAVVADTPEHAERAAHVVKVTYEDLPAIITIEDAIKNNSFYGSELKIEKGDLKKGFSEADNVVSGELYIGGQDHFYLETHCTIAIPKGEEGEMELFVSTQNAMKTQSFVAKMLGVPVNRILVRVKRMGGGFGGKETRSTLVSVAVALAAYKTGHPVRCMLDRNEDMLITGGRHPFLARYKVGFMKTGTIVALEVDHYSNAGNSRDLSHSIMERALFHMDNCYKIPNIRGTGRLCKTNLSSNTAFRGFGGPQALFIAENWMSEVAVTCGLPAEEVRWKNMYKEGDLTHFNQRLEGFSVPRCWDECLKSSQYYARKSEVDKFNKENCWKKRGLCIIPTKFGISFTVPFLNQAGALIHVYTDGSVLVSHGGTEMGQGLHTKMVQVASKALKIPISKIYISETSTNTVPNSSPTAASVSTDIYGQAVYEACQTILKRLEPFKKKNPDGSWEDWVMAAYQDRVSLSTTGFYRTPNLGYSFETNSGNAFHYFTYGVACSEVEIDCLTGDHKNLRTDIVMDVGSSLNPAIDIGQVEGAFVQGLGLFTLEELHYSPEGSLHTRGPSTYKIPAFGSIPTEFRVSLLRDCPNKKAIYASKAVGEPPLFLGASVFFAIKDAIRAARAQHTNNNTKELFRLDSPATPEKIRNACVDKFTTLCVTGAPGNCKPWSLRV
# Procedure: The extracts from four different polar solvents (EtOAc, MeOH, 50% MeOH, and H2O) were tested for their enzyme-inhibitory activities against XO. The enzyme assay followed the oxidation of xanthine to uric acid at 295 nm spectrophotometrically. […] In addition to ^13C-NMR data, various spectroscopic data were used to identify the structures. […]
# XO-inhibitory activity was assayed spectrophotometrically on a SpectraMax M2 microplate reader, using a previously reported experimental procedure with a slight modification. First, 135 µL of 100 mM sodium pyrophosphate buffer (HCl, pH 7.5), 20 µL of 0.1 unit XO enzyme (bovine milk) in buffer, and 5 µL of samples (test extracts or compounds) in dimethylsulfoxide were mixed at 37 °C. The reaction was started by adding 40 µL of substrate (0.5 mM xanthine) in buffer to the mixture. The reaction mixture (200 µL) was incubated at 37 °C in a 300 µL well plate and the UV absorbance at 295 nm was determined every 1 min up to 5 min.
Structure (SMILES),Xanthine Oxidase Kinetic Mode (xanthine oxidase (XO)),Ki (xanthine oxidase (XO)) [µM],"efficacy of 1 relative to 4 (fold, from IC50) (xanthine oxidase (XO); XO inhibition, compared with 4 (IC50 = 20.9 µM)) [fold]",Reversibility of XO inhibition (xanthine oxidase (XO); activity versus enzyme concentration (0-0.2 units/mL) at different inhibitor concentrations),IC50 (xanthine oxidase (XO)) [µM],inhibition at 25 µM (xanthine oxidase (XO); sample concentration 25 µM) [%],melting point [°C],inhibition at 25 µM (xanthine oxidase (XO)) [%]
"Oc1ncnc2[nH]ncc12 [Allopurinol, reference compound]",Competitive,–,–,–,–,–,–,82.5 ± 1.7
"CCCC(=O)c1c(O)c(C)c(O)c(CC2=C(O)C(C)(C)C(O)=C(C(=O)CC)C2=O)c1O [Compound 3, flavaspidic acid PB]",Noncompetitive,15.3,–,–,13.2 ± 0.6,62.1 ± 0.9,156 to 158,–
"CCCC(=O)C1=C(O)C(C)(C)C(O)=C(Cc2c(O)c(C)c(O)c(C(=O)CCC)c2O)C1=O [Compound 4, 2-butyryl-6-(3-butyryl-2,4,6-trihydroxy-5-methylbenzyl)-3,5-dihydroxy-4,4-dimethylcyclohexa-2,5-dienone]",Noncompetitive,21.1,–,–,20.9 ± 0.9,54.4 ± 1.5,–,–
"O=c1[nH]c(=O)c2c[nH]nc2[nH]1 [Oxypurinol, reference compound]",–,–,–,–,43.1 ± 0.8,42.2 ± 1.2,–,–

# The next lines start with results.
Xanthine Oxidase Kinetic Mode (xanthine oxidase (XO)),Ki (xanthine oxidase (XO)) [µM],"efficacy of 1 relative to 4 (fold, from IC50) (xanthine oxidase (XO); XO inhibition, compared with 4 (IC50 = 20.9 µM)) [fold]",Reversibility of XO inhibition (xanthine oxidase (XO); activity versus enzyme concentration (0-0.2 units/mL) at different inhibitor concentrations),IC50 (xanthine oxidase (XO)) [µM],inhibition at 25 µM (xanthine oxidase (XO); sample concentration 25 µM) [%],melting point [°C],Structure (SMILES),inhibition at 25 µM (xanthine oxidase (XO)) [%]
noncompetitive inhibitor,7.8,~4,reversible inhibitor,6.3 ± 0.4,79.6 ± 1.6,–,"CCC(=O)c1c(O)c(C)c(O)c(CC2=C(O)C(C)(C)C(O)=C(C(C)=O)C2=O)c1O [Compound 1, flavaspidic acid AP]",–
Noncompetitive,11.7,–,–,10.2 ± 0.5,68.1 ± 1.3,158 to 160,"CCCC(=O)c1c(O)c(C)c(O)c(CC2=C(O)C(C)(C)C(O)=C(C(C)=O)C2=O)c1O [Compound 2, flavaspidic acid AB]",–
